In ChEMBL document CHEMBL2177061, “Factors influencing the specificity of inhibitor binding to the human and malaria parasite dihydroorotate dehydrogenases” (J Med Chem, 2012):
Substitutions are numbered along the chain they refer to.

Experiments:
[1] = molecular target: T1, Dihydroorotate dehydrogenase (Plasmodium falciparum, UniProt Q54A96); test: Inhibition of Plasmodium falciparum […] dehydrogenase expressed in Escherichia coli BL21(DE3) using […] as substrate by DCIP-based colorimetric analysis
T1 sequence (Q54A96 whole entry): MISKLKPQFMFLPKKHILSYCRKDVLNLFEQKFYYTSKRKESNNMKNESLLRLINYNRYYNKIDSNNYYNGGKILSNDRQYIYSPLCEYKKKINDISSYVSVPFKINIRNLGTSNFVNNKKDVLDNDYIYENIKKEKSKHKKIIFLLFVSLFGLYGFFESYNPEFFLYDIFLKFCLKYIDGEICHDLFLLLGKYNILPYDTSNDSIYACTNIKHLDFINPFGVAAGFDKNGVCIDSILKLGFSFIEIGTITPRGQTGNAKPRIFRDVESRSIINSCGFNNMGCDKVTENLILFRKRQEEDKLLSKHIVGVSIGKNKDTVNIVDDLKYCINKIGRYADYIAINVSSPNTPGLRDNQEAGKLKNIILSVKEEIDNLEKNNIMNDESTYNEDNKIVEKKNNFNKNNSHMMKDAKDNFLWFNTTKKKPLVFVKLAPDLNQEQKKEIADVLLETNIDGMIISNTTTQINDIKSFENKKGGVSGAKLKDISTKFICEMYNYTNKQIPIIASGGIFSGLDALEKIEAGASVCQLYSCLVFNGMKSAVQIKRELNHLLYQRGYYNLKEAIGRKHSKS

[2] = molecular target: Dihydroorotate dehydrogenase (quinone), mitochondrial (Homo sapiens, UniProt Q02127); test: Inhibition of human […] dehydrogenase expressed in Escherichia coli BL21(DE3) using […] as substrate by DCIP-based colorimetric analysis
[3] = system: T2, Dihydroorotate dehydrogenase (quinone), mitochondrial (Plasmodium falciparum (isolate 3D7)), Q08210 [F188Y]; test: Inhibition of Plasmodium falciparum […] dehydrogenase F188Y mutant expressed in Escherichia coli BL21(DE3) using […] as substrate at 100 uM by DCIP-based colorimetric analysis
T2 sequence (whole entry): T1 sequence (Q54A96 whole entry) with F188Y

[4] = system: T3, Dihydroorotate dehydrogenase (quinone), mitochondrial (Plasmodium falciparum (isolate 3D7)), Q08210 [H185A]; test: Inhibition of Plasmodium falciparum […] dehydrogenase H185A mutant expressed in Escherichia coli BL21(DE3) using […] as substrate at 100 uM by DCIP-based colorimetric analysis
T3 sequence (whole entry): T1 sequence (Q54A96 whole entry) with H185A

Plasmodium falciparum [5] = test: Ratio of IC50 for Plasmodium falciparum […] dehydrogenase C276A mutant to IC50 for Plasmodium falciparum wild type […] dehydrogenase
Homo sapiens [6] = species: Homo sapiens; test: Ratio of IC50 for human […] dehydrogenase H56A mutant to IC50 for human wild type […] dehydrogenase
[7] = system: T4, Dihydroorotate dehydrogenase (quinone), mitochondrial (Plasmodium falciparum (isolate 3D7)), Q08210 [C276F]; test: Inhibition of Plasmodium falciparum […] dehydrogenase C276F mutant expressed in Escherichia coli BL21(DE3) using […] as substrate at 100 uM by DCIP-based colorimetric analysis
T4 sequence (whole entry): T1 sequence (Q54A96 whole entry) with C276F

Homo sapiens [8] = species: Homo sapiens; test: Ratio of IC50 for human dihydrofolate dehydrogenase Y147F mutant to IC50 for human wild type dihydrofolate dehydrogenase
Homo sapiens [9] = species: Homo sapiens; test: Ratio of IC50 for human dihydrofolate dehydrogenase Y147A mutant to IC50 for human wild type dihydrofolate dehydrogenase
Homo sapiens [10] = species: Homo sapiens; test: Ratio of IC50 for human dihydrofolate dehydrogenase Y147C mutant to IC50 for human wild type dihydrofolate dehydrogenase
[11] = system: T5, Dihydroorotate dehydrogenase (quinone), mitochondrial (Plasmodium falciparum (isolate 3D7)), Q08210 [C276Y]; test: Inhibition of Plasmodium falciparum […] dehydrogenase C276Y mutant expressed in Escherichia coli BL21(DE3) using […] as substrate at 100 uM by DCIP-based colorimetric analysis
T5 sequence (whole entry): T1 sequence (Q54A96 whole entry) with C276Y

Plasmodium falciparum [12] = test: Ratio of IC50 for Plasmodium falciparum […] dehydrogenase C276Y mutant to IC50 for Plasmodium falciparum wild type […] dehydrogenase
Plasmodium falciparum [13] = test: Ratio of IC50 for Plasmodium falciparum […] dehydrogenase H185A mutant to IC50 for Plasmodium falciparum wild type […] dehydrogenase
Plasmodium falciparum [14] = test: Ratio of IC50 for Plasmodium falciparum […] dehydrogenase C276F mutant to IC50 for Plasmodium falciparum wild type […] dehydrogenase
Plasmodium falciparum [15] = test: Ratio of IC50 for Plasmodium falciparum […] dehydrogenase F188A mutant to IC50 for Plasmodium falciparum wild type […] dehydrogenase
Homo sapiens [16] = species: Homo sapiens; test: Inhibition of human […] dehydrogenase H56A mutant expressed in Escherichia coli BL21(DE3) using […] as substrate at 100 uM by DCIP-based colorimetric analysis
Homo sapiens [17] = species: Homo sapiens; test: Inhibition of human […] dehydrogenase Y147A mutant expressed in Escherichia coli BL21(DE3) using […] as substrate at 100 uM by DCIP-based colorimetric analysis
Homo sapiens [18] = species: Homo sapiens; test: Inhibition of human […] dehydrogenase Y147C mutant expressed in Escherichia coli BL21(DE3) using […] as substrate at 100 uM by DCIP-based colorimetric analysis
Homo sapiens [19] = species: Homo sapiens; test: Inhibition of human […] dehydrogenase Y147F mutant expressed in Escherichia coli BL21(DE3) using […] as substrate at 100 uM by DCIP-based colorimetric analysis

Sequence of Dihydroorotate dehydrogenase (quinone), mitochondrial (Q02127 whole entry): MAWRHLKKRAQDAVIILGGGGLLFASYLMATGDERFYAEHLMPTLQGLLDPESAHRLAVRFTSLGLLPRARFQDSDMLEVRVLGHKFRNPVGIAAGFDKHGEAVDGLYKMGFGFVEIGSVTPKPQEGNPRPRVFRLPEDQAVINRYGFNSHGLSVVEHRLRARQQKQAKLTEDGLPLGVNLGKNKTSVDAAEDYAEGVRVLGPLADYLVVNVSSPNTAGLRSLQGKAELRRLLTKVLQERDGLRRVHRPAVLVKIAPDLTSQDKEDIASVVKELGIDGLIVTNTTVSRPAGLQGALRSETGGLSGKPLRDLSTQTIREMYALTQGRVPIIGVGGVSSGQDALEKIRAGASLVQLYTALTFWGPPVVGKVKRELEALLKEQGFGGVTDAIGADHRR

SMILES	IC50 [1] [µM]	IC50 [2] [µM]	other results
Cc1cc(N)n2nc(SCc3ccc(Cl)c(Cl)c3)nc2n1	> 100	> 100	
Cc1ccc(CSc2nc3[nH]c(C)cc(=O)n3n2)cc1	26	46	
Cc1cc(O)n2nc(SCc3ccccc3Cl)nc2n1	28	12	
Cc1cc(N)n2nc(SCc3ccccc3)nc2n1	> 100	> 100	
Cc1cc(O)n2nc(SCc3c(Cl)cccc3Cl)nc2n1	3.5	18	
Cc1cc(O)n2nc(SCc3cc(Cl)ccc3Cl)nc2n1	11	0.051	inhibition [3]: < 50%; inhibition [4]: < 50%; Ratio IC50 (Plasmodium falciparum [5]): 3.7; Ratio IC50 (Homo sapiens [6]): 7.1; inhibition [7]: < 50%; Ratio IC50 (Homo sapiens [8]): 1.1; Ratio IC50 (Homo sapiens [9]): 20; Ratio IC50 (Homo sapiens [10]): 14; inhibition [11]: < 50%
Cc1cc(C)cc(CSc2nc3nc(C)cc(O)n3n2)c1	19	30	
Cc1cc(O)n2nc(SCc3cccc(Cl)c3)nc2n1	5.6	29	
CCc1cc(O)n2nc(SCc3ccc(Cl)cc3)nc2n1	> 100	13	
Cc1cc(NCc2ccccc2)n2nc(SCc3ccccc3)nc2n1	> 100	> 100	
COc1ccc(CSc2nc3nc(C)cc(O)n3n2)cc1	21	63	
Cc1cc(Nc2ccc3ccccc3c2)n2ncnc2n1			Ratio IC50 (Plasmodium falciparum [12]): 3.5; Ratio IC50 (Plasmodium falciparum [13]): 19; Ratio IC50 (Plasmodium falciparum [5]): 0.69; Ratio IC50 (Plasmodium falciparum [14]): 2.3; Ratio IC50 (Plasmodium falciparum [15]): 29
Cc1cc(O)n2nc(SCc3ccccc3[N+](=O)[O-])nc2n1	> 100	9.5	
Cc1cc(O)n2nc(SCc3ccc(Cl)c(Cl)c3)nc2n1	1.9	6.5	inhibition [3]: < 50%; inhibition (Homo sapiens [16]): < 50%; inhibition [4]: < 50%; Ratio IC50 (Plasmodium falciparum [5]): 2; inhibition [7]: < 50%; Ratio IC50 (Homo sapiens [8]): 8.8; inhibition (Homo sapiens [17]): < 50%; inhibition (Homo sapiens [18]): < 50%; inhibition [11]: < 50%
Cc1cc(O)n2nc(SCc3ccc(Br)cc3)nc2n1	33	32	
Cc1cc(=O)n2nc(SCc3ccc(Cl)cc3)nc2[nH]1	1	39	inhibition [3]: < 50%; inhibition (Homo sapiens [16]): < 50%; inhibition [4]: < 50%; Ratio IC50 (Plasmodium falciparum [5]): 1.5; inhibition [7]: < 50%; inhibition (Homo sapiens [17]): < 50%; inhibition (Homo sapiens [19]): < 50%; inhibition (Homo sapiens [18]): < 50%; inhibition [11]: < 50%
Cc1cc(O)n2nc(SCc3ccccc3)nc2n1	62	89	
